Values quoted from earlier work, collected in US5852050A, “Preparation for treating wounds or hemorrhoids” (Kaken Pharmaceutical Co., Ltd., priority 1992, dated 1998).

Key:
[1] = system: platelet aggregation; settings: background statement; cited from earlier work
[2] = background statement; cited from earlier work

**Q.** For `CCCCC[C@H](O)/C=C/[C@H]1[C@H](O)CC(=O)[C@@H]1CCCCCCC(=O)O` [PGE1, prostaglandin E1], which “inhibition activity of platelet aggregation” value [1] is on record?
**A.** Its value is “high inhibition activity of platelet aggregation”.

**Q.** With `CCCCC[C@H](O)/C=C/[C@@H]1[C@H]2C/C(=C/CCCC(=O)O)O[C@H]2C[C@H]1O` [PGI2, Prostaglandin I2] as the compound, how does the “inhibition activity of platelet aggregation” value [1] read?
**A.** Its value is “high inhibition activity of platelet aggregation”.

**Q.** And the chemical stability [2]?
**A.** The chemical stability was “chemically unstable”.
